Assay results taken from patent publication US20240058335A1, “METHODS FOR TREATMENT OF CANCER USING ABL INHIBITORS AND DRUGS TARGETING THE MEVALONATE PATHWAY” (Duke University, priority 2021, published 2024).

Tested on: PC9 cells
Experiment: Pooled metabolically focused CRISPR/Cas9 loss-of-function screen with GNF5 (gene-level three scores)
Assay type: cell-based, human
Experimental: POOLED CRISPR SCREEN. PC9 cells were seeded into 12, six-well plates at 0.25e6 cells/well. A separate plate was also prepared for no puromycin and puromycin controls of non-transduced cells. Cells were transduced at a MOI of 0.2. 24 hours after viral transduction, cells were replated into puromycin-containing media. A sample was collected at 48 hours of puromycin exposure to confirm library coverage in the transduced population. Transduced cells were expanded in puromycin for a total of 10 days prior to drug introduction, at which point the transduced cell population was split into vehicle (DMSO) and GNF5 treatment conditions and maintained for up to two weeks. Cells were treated with 2 μM GNF5 which corresponded to 20-30% loss in cell viability following a 3-day dose response assay. Cells were counted, replated, and drug replenished every day. At any given point during the screen, each replicate was represented by a minimum of 12E6 cells, sufficient to provide 1000×coverage of the library (1000 cells per unique sgRNA). Samples of 25E6 cells were collected upon screen initiation, termination, and at weekly intervals. Following completion of the screens, DNA was extracted (DNeasy Blood & Tissue Kit, QIAGEN) and prepared for sequencing as previously described.
SCREEN ANALYSIS. Deep sequencing was performed on an Illumina Nextseq platform (75 bp, paired-ended) to identify differences in library composition. All sequencing was performed by the Duke University genome sequencing facility. Barcoded reads were mapped to the guide RNA library using bcSeq to obtain the counts for each guide RNA. Determinations of genetic essentiality and drug sensitization/resistance were made by evaluating differential guide compositions between the initial population and subsequent drug-treated and vehicle-treated cells populations. Briefly, the fractional representation (FR) for the guide reads within a sample was normalized to the total reads attributed to that sample. A direct comparison between two samples was represented by the quotient of the respective FRs in the log 2 scale, which is termed the depletion metric (DM). The guide-level DMs for each gene were then collapsed to gene-level scores by taking the average of the top three most depleted constructs resulting in a biased analysis focused on depleted genes. Genes represented by fewer than 5 guides per condition were excluded from analysis. In the 2,322-gene library, 7 genes (representing 0.3% of the total library) were excluded. Genetic essentiality was calculated by considering the depletion/enrichment of the vehicle-treated (DSMO) population over time (DMSO final/DSMO initial). Drug sensitization/resistance was calculated by considering the depletion/enrichment of the drug-treated population relative to the vehicle-treated population (Drug final/DMSO final). All depletion/enrichment effects are reported as log 2 ratios. All analyses were conducted using the R statistical environment (https://www.r-project.org/) along with extension packages from the comprehensive R archive network (CRAN; available at cran.r-project.org/) and the Bioconductor project. The analyses were carried out with adherence to the principles of reproducible analysis using the knitr package for generation of dynamic reports and gitlab for source code management. The code for replicating the statistical analysis was made accessible through a public source code repository, available at gitlab.oit.duke.edu/dcibioinformatics/pubs/pendergast-crispr-barcode.
Because many metabolic genes are known to be essential to cellular viability, determining the effect of cell-essential genetic loss on apoptosis is difficult. […] The remaining cell-essential genes are captured by the screen.
Metabolically focused CRISPR/Cas9 loss-of-function screen identifies HMGCR inhibition with statin therapy as an apoptotic sensitizer in lung cancer cells. […]

Structure (SMILES): O=C(NCCO)c1cccc(-c2cc(Nc3ccc(OC(F)(F)F)cc3)ncn2)c1 [GNF5]
- log2 TS (CCBL1 knockout): −0.2362
- log2 TS (CCBL2 knockout): −0.00176
- log2 TS (CCDC102B knockout): −0.3186
- log2 TS (CCDC155 knockout): −0.128
- log2 TS (CDA knockout): −0.3678
- log2 TS (CDADC1 knockout): −0.189
- log2 TS (CDC14A knockout): −0.5269
- log2 TS (CDC14B knockout): −0.3312
- log2 TS (CDC25A knockout): −0.3125
- log2 TS (CDC25B knockout): −0.5769
- log2 TS (CDC25C knockout): 0.02041
- log2 TS (CDKN3 knockout): −0.2304
- log2 TS (CDO1 knockout): −0.3626
- log2 TS (CECR1 knockout): 0.1378
- log2 TS (CEL knockout): −0.2626
- log2 TS (CERK knockout): −0.2067
- log2 TS (CERKL knockout): −0.4755
- log2 TS (CERS1 knockout): −0.5675
- log2 TS (CERS2 knockout): −0.1757
- log2 TS (CERS3 knockout): −0.3966
- log2 TS (CERS4 knockout): −0.0552
- log2 TS (CERS5 knockout): −0.09954
- log2 TS (CERS6 knockout): −0.2316
- log2 TS (CES1 knockout): −0.1103
- log2 TS (CES2 knockout): −0.115
- log2 TS (CES3 knockout): −0.1816
- log2 TS (CFTR knockout): −0.552
- log2 TS (CHAT knockout): 0.03889
- log2 TS (CHI3L1 knockout): −0.08904
- log2 TS (CHI3L2 knockout): −0.203
- log2 TS (CHIA knockout): −0.1854
- log2 TS (CHID1 knockout): −0.2305
- log2 TS (CHIT1 knockout): −0.1013
- log2 TS (CHKA knockout): 0.1899
- log2 TS (CHPF knockout): −0.1196
- log2 TS (CHPT1 knockout): 0.05664
- log2 TS (CHRNA1 knockout): −0.2091
- log2 TS (CHRNA2 knockout): −0.09543
- log2 TS (CHRNA3 knockout): 0.193
- log2 TS (CHRNA4 knockout): −0.2119
- log2 TS (CHRNA5 knockout): −0.1927
- log2 TS (CHRNA6 knockout): −0.00193
- log2 TS (CHRNA7 knockout): −0.4166
- log2 TS (CHRNA9 knockout): −0.2542
- log2 TS (CHRNA10 knockout): −0.09517
- log2 TS (CHRNB1 knockout): −0.07599
- log2 TS (CHRNB2 knockout): −0.2245
- log2 TS (CHRNB3 knockout): −0.3189
- log2 TS (CHRNB4 knockout): −0.4141
- log2 TS (CHRND knockout): −0.5686
- log2 TS (CHRNE knockout): −0.137
- log2 TS (CHRNG knockout): 0.05205
- log2 TS (CHST1 knockout): −0.0245
- log2 TS (CHST6 knockout): −0.3091
- log2 TS (CKB knockout): −0.247
- log2 TS (CKM knockout): −0.3126
- log2 TS (CKMT2 knockout): −0.2525
- log2 TS (CLC knockout): −0.314
- log2 TS (CLCA1 knockout): −0.142
- log2 TS (CLCA2 knockout): −0.4614
- log2 TS (CLCA4 knockout): 0.05396
- log2 TS (CLCN1 knockout): −0.1326
- log2 TS (CLCN2 knockout): −0.1747
- log2 TS (CLCN3 knockout): −0.494
- log2 TS (CLCN4 knockout): 0.0428
- log2 TS (CLCN5 knockout): −0.4161
- log2 TS (CLCN6 knockout): −0.3635
- log2 TS (CLCN7 knockout): −0.1319
- log2 TS (CLCNKA knockout): −0.1822
- log2 TS (CLCNKB knockout): −0.3352
- log2 TS (CLIC1 knockout): −0.09123
- log2 TS (CLIC2 knockout): −0.1159
- log2 TS (CLIC3 knockout): 0.07472
- log2 TS (CLIC4 knockout): −0.06827
- log2 TS (CLIC5 knockout): −0.3935
- log2 TS (CLIC6 knockout): −0.02678
- log2 TS (CLYBL knockout): 0.05734
- log2 TS (CMAS knockout): −0.3056
- log2 TS (CMPK1 knockout): −0.1483
- log2 TS (CNDP1 knockout): −0.1314
- log2 TS (CNDP2 knockout): −0.1743
- log2 TS (CNGA1 knockout): −0.1817
- log2 TS (CNGA2 knockout): −0.3543
- log2 TS (CNGA3 knockout): 0.05484
- log2 TS (CNGA4 knockout): −0.3821
- log2 TS (CNGB1 knockout): −0.4165
- log2 TS (CNGB3 knockout): −0.1968
- log2 TS (COA5 knockout): −0.2719
- log2 TS (COASY knockout): 0.06804
- log2 TS (COMT knockout): −0.2352
- log2 TS (COMTD1 knockout): −0.123
- log2 TS (COQ3 knockout): −0.1115
- log2 TS (COQ5 knockout): −0.3619
- log2 TS (COQ6 knockout): −0.1357
- log2 TS (COQ9 knockout): 0.009879
- log2 TS (COX10 knockout): −0.3233
- log2 TS (COX11 knockout): −0.3148
- log2 TS (COX15 knockout): −0.6246
- log2 TS (COX17 knockout): −0.66
- log2 TS (COX20 knockout): −0.2164
